Reference: patent US11319324B2, “Pyrazolo-pyrrolo-pyrimidine-dione derivatives as P2X3 inhibitors” (Bayer Aktiengesellschaft, priority 2017, dated 2022)
Structures can show the parent of a compound that is named as a salt.

What was measured:
Assay type in all cases: cell-based
human P2X2/3 receptors = target: T1, human P2X2/3 receptors (Homo sapiens, UniProt P56373+Q9UBL9); test: Intracellular calcium measurement, antagonist activity at human P2X2/3 receptors (hP2X23 1321N1), Fluo8; conditions: for IC50: column 4); 1321N1 cells, human P2X2/3, Fluo8, agonist ATP at EC50; read-out: 4) hP2X2/3 IC50 [nM] (1321N1); for hP2X23/hP2X3* Selectivity (1321N1): ratio of column 4) hP2X2/3 to column 3) hP2X3, 1321N1
T1 construct: expressed in transfected cells; host or cells: human astrocytoma 1321N1 (1312N1 [sic])
T1 sequence (P56373 1-397): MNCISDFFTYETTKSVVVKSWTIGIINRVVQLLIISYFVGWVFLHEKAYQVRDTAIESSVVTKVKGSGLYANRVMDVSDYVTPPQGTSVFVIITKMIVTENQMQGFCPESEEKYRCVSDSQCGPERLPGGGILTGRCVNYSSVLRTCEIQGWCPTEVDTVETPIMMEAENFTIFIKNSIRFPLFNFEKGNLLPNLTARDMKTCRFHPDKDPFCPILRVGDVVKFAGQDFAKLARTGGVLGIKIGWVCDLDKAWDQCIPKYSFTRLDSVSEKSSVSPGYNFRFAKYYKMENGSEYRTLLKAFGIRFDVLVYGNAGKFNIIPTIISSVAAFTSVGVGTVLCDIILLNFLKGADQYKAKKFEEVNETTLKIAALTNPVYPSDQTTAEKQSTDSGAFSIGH
T1 sequence (Q9UBL9 1-471): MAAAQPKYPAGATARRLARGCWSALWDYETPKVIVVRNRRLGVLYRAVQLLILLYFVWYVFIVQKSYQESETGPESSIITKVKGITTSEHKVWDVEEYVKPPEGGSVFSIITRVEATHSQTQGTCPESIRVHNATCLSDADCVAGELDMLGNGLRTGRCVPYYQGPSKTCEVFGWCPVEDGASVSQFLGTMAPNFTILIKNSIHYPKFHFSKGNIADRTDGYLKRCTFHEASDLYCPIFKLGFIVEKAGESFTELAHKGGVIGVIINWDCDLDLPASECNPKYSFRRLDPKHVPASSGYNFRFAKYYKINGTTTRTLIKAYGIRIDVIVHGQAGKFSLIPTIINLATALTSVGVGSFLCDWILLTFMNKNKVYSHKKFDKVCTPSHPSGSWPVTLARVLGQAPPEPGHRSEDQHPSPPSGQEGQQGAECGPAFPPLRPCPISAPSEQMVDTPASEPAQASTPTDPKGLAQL
Method in brief: (§1)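 Inhibition of ATP-triggered Ca2+ transients is measured in 1321N1 cells expressing P2X3 homotrimers or P2X2/3 heterotrimers.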

human P2X3 receptor [1] = target: T2, human P2X3 receptor (Homo sapiens, UniProt P56373); test: Intracellular calcium measurement, antagonist activity at human P2X3 receptors (hP2X3 1321N1), Fluo8; design: expressed in transfected cells; host or cells: human astrocytoma 1321N1 (1312N1 [sic]); conditions: column 3); 1321N1 cells, human P2X3, Fluo8, agonist ATP at EC50
T2 sequence (P56373 1-397): T1 sequence (P56373 1-397)
Method in brief: as §1

human P2X3 receptor [2] = target: T2, human P2X3 receptor; test: Intracellular calcium measurement to assess antagonist activity at human P2X3 receptors (hP2X3 CHO), photina luminescence; design: expressed in transfected cells; host or cells: Chinese hamster ovary (CHO) cells; conditions: column 2), CHO cells, agonist α,β-methylene-ATP at EC50
Method in brief: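 CHO cells stably expressing human P2X3 and mitochondrial photina, plated the day before at 30 °C, then loaded 3 h at 37 °C in 2 mM Ca-tyrode buffer with 5 μg/ml coelenterazine. Agonist-evoked calcium luminescence read immediately; inhibition seen as signal decrease.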

SMILES | IC50 (human P2X2/3 receptors) [nM] | hP2X23/hP2X3* Selectivity (1321N1) (human P2X2/3 receptors) | IC50 (human P2X3 receptor [1]) [nM] | IC50 (human P2X3 receptor [2]) [nM]
CC(C)N1Cc2c(n(CC(=O)Nc3ccc(F)cn3)c3cc(NCCOCc4ccccc4)nn3c2=O)C1=O [Example 176, 2-[2-{[2-(benzyloxy)ethyl]amino}-5,8-dioxo-6-(propan-2-yl)-5,6,7,8-tetrahydro-4H-pyrazolo[1,5-a]pyrrolo[3,4-d]pyrimidin-4-yl]-N-(5-fluoropyridin-2-yl)acetamide] | 7700 | 114 | 68 | 88
COC[C@H](C)N1Cc2c(n(CC(=O)Nc3ccc(F)cn3)c3cc(C(=O)N(C)C4CC4)nn3c2=O)C1=O [Example 196] | 4150 | 277 | 15 | 10
CCc1cc2n(CC(=O)Nc3ccc(F)cn3)c3c(c(=O)n2n1)CN(C[C@H]1CCCN1)C3=O [Example 233, 2-{2-ethyl-5,8-dioxo-6-[(2R)-pyrrolidin-2-ylmethyl]-5,6,7,8-tetrahydro-4H-pyrazolo[1,5-a]pyrrolo[3,4-d]pyrimidin-4-yl}-N-(5-fluoropyridin-2-yl)acetamide hydrochloride (1:1)] | > 32000 | >30 | 1060 | 335
COCCNc1cc2n(CC(=O)Nc3ccc(F)cn3)c3c(c(=O)n2n1)CN(C(C)C)C3=O [Example 169] | > 20700 | >173 | 120 | 108
CC(C)N1Cc2c(n(CC(=O)Nc3ccc(F)cn3)c3cc(-c4ccccc4)nn3c2=O)C1=O [Example 150, 2-[5,8-dioxo-2-phenyl-6-(propan-2-yl)-5,6,7,8-tetrahydro-4H-pyrazolo[1,5-a]pyrrolo[3,4-d]pyrimidin-4-yl]-N-(5-fluoropyridin-2-yl)acetamide] | 2250 | 139 | 16 | 12
CC(C)N1Cc2c(n(CC(=O)Nc3ccc(F)cn3)c3cc(C4CCN(C5CCC5)C4)nn3c2=O)C1=O (stereo not shown) [Example 250] | 4300 | 36 | 118 | 162
CC(C)N1Cc2c(n(CC(=O)Nc3ccc(F)cn3)c3cc(C(=O)NCC4CC4)nn3c2=O)C1=O [Example 187] | 2300 | 112 | 21 | 21
CC(C)N1Cc2c(n(CC(=O)Nc3ccc(F)cn3)c3cc(C4CC4)nn3c2=O)C1=O [Example 56] | 9950 | 54 | 185 | 73
CCc1cc2n(CC(=O)Nc3ccc(F)cn3)c3c(c(=O)n2n1)CN(C1CCN(C(=O)NC(C)C)C1)C3=O (racemic) [Example 274, (±)-3-[2-ethyl-4-{2-[(5-fluoropyridin-2-yl)amino]-2-oxoethyl}-5,8-dioxo-5,8-dihydro-4H-pyrazolo[1,5-a]pyrrolo[3,4-d]pyrimidin-6(7H)-yl]-N-(propan-2-yl)pyrrolidine-1-carboxamide] | > 32000 | >256 | 125 | 187
CC(C)N1Cc2c(n(CC(=O)Nc3ccc(F)cn3)c3cc(N4CCN(C)CC4)nn3c2=O)C1=O [Example 181, N-(5-fluoropyridin-2-yl)-2-[2-(4-methylpiperazin-1-yl)-5,8-dioxo-6-(propan-2-yl)-5,6,7,8-tetrahydro-4H-pyrazolo[1,5-a]pyrrolo[3,4-d]pyrimidin-4-yl]acetamide] | 5550 | 173 | 32 | 63
CC(C)N1Cc2c(n(CC(=O)Nc3ccc(F)cn3)c3cc(NC(=O)OC(C)(C)C)nn3c2=O)C1=O [Example 91] | 1900 | 58 | 33 | 27
CCc1cc2n(CC(=O)Nc3ccc(F)cn3)c3c(c(=O)n2n1)CN(C[C@H]1CCCO1)C3=O [Example 73, 2-{2-ethyl-5,8-dioxo-6-[(2R)-tetrahydrofuran-2-ylmethyl]-5,6,7,8-tetrahydro-4H-pyrazolo[1,5-a]pyrrolo[3,4-d]pyrimidin-4-yl}-N-(5-fluoropyridin-2-yl)acetamide] | 9500 | 91 | 104 | 122
CCc1cc2n(CC(=O)Nc3ccc(Cl)cn3)c3c(c(=O)n2n1)CN(C(C)C)C3=O [Example 66] | 5450 | 98 | 56 | 81
CCc1cc2n(CC(=O)Nc3ccccn3)c3c(c(=O)n2n1)CN(C(C)C)C3=O [Example 64] | > 32000 | >74 | 433 | 430
CC(C)N1Cc2c(n(CC(=O)Nc3ccc(F)cn3)c3cc(C4CNC4)nn3c2=O)C1=O.Cl [Example 244] | 7900 | 28 | 280 | 330
CCc1cc2n(CC(=O)Nc3ccc(F)cn3)c3c(c(=O)n2n1)CN(CCNC(=O)OC(C)(C)C)C3=O [Example 68, tert-butyl {2-[2-ethyl-4-{2-[(5-fluoropyridin-2-yl)amino]-2-oxoethyl}-5,8-dioxo-5,8-dihydro-4H-pyrazolo[1,5-a]pyrrolo[3,4-d]pyrimidin-6(7H)-yl]ethyl}carbamate] | 1660 | 160 | 10 | 17
COCc1cc2n(CC(=O)Nc3ccc(F)cn3)c3c(c(=O)n2n1)CN(C(C)C)C3=O [Example 57] | > 32000 | >121 | 265 | 125
CC(C)N1Cc2c(n(CC(=O)Nc3ccc(F)cn3)c3cc(C4CCN(C(=O)C(F)F)CC4)nn3c2=O)C1=O [Example 264] | 7400 | 427 | 17 | 36
CCc1cc2n(CC(=O)Nc3ccc(F)cn3)c3c(c(=O)n2n1)CN(C1CCN(C(=O)C(F)F)C1)C3=O (stereo not shown) [Example 266] | > 32000 | >101 | 317 | 270
CC(O)c1cc2n(CC(=O)Nc3ccc(F)cn3)c3c(c(=O)n2n1)CN(C(C)C)C3=O (racemic) [Example 275, N-(5-fluoropyridin-2-yl)-2-{2-[(±)-1-hydroxyethyl]-5,8-dioxo-6-(propan-2-yl)-5,6,7,8-tetrahydro-4H-pyrazolo[1,5-a]pyrrolo[3,4-d]pyrimidin-4-yl}acetamide] | > 32000 | >152 | 210 | 173
CCc1cc2n(CC(=O)Nc3ccc(F)cn3)c3c(c(=O)n2n1)CN(C1CCNC1)C3=O (single isomer, unassigned) [Example 277, 2-{2-ethyl-5,8-dioxo-6-[pyrrolidin-3-yl]-5,6,7,8-tetrahydro-4H-pyrazolo[1,5-a]pyrrolo[3,4-d]-pyrimidin-4-yl}-N-(5-fluoropyridin-2-yl)acetamide] | 7300 | 66 | 110 | 150
COC[C@H](C)N1Cc2c(n(CC(=O)Nc3ccc(F)cn3)c3cc(C(=O)N(C)C)nn3c2=O)C1=O [Example 189] | > 23500 | >291 | 81 | 35
